Source: publication PMC3038857, “Using Nuclear Receptor Activity to Stratify Hepatocarcinogens” (PLoS ONE, 2011)
Like-named read-outs stand apart in the source and are kept apart here.

Legend:
[1] = biological target: T1, AHR (aryl hydrocarbon receptor) (Homo sapiens, UniProt P35869); experiment: ATG_Ahr_CIS: Factorial reporter gene assay (multiplexed transcription reporter, HepG2); assay type: cell-based
T1 construct: endogenous in cells; host or cells: HepG2
T1 sequence (P35869 11-848): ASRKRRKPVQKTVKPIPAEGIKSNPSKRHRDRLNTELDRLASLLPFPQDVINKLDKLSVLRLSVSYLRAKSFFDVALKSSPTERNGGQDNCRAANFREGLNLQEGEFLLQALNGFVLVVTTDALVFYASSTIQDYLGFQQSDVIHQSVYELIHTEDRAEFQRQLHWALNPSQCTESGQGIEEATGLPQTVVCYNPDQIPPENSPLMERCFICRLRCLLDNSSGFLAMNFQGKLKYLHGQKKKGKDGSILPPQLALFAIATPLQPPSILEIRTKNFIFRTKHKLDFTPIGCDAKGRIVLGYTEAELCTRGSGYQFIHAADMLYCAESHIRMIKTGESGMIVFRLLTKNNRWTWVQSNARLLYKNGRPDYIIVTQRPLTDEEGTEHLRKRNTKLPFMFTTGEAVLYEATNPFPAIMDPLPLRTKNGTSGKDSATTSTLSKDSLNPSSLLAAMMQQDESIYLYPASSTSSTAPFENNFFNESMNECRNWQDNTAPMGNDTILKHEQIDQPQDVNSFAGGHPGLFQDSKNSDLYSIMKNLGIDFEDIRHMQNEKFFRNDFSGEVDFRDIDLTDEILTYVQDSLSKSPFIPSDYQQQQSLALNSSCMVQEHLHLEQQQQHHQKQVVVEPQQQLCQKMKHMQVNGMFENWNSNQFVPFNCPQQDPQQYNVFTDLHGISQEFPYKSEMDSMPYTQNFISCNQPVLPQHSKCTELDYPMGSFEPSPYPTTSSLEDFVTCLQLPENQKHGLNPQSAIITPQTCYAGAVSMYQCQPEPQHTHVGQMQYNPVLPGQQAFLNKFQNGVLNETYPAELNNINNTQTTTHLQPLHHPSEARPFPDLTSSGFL
Description: (§1) A multiple reporter transcription unit (MRTU) library consisting of 48 transcription factor binding sites was transfected into the HepG2 human liver hepatoma cell line. In addition to the cis-acting reporter genes (CIS), a modification of the approach was used to generate a trans-system (TRANS) with a mammalian one-hybrid assay consisting of an additional 25 MRTU library reporting the activity of nuclear receptor super-family members. […] These assays were performed by Attagene Inc. (Morrisville NC) under contract to EPA.
(§2) In addition to the cis-acting reporter genes (CIS), a modification of the approach was used to generate a trans-system (TRANS) with a mammalian one-hybrid assay consisting of an additional 25 MRTU library reporting the activity of nuclear receptor super-family members. […] Chemicals were then tested in the CIS and TRANS assays at seven concentrations starting at the MTC and followed by three-fold serial dilutions. These assays were performed by Attagene Inc. (Morrisville NC) under contract to EPA. Detailed description of the methods, data and analysis methods for this dataset will be presented in a separate publication.

CYP1A2 = experiment: CLZD_CYP1A2: Change in expression of CYP1A2 (primary human hepatocytes); assay type: cell-based; conditions: 24 hr
In short: (§3)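 Primary human hepatocyte cultures were exposed to test chemicals at 5 concentrations (0.004-40 µM) for 6, 24 or 48 hr.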

Rat Liver [2] = conditions: ref ToxRefDB, cited from earlier work
Rat Liver [3] = conditions: ref ToxRefDB, cited from earlier work; remark: listed apart in the source
Rat Liver [4] = conditions: ref ToxRefDB, cited from earlier work; remark: listed apart in the source
PXR (NR1I2) [5] = biological target: T2, PXR (NR1I2) (Homo sapiens, UniProt O75469); experiment: ATG_PXRE_CIS: Factorial reporter gene assay (HepG2); assay type: cell-based; design: endogenous in cells; host or cells: HepG2
T2 sequence (O75469 1-434): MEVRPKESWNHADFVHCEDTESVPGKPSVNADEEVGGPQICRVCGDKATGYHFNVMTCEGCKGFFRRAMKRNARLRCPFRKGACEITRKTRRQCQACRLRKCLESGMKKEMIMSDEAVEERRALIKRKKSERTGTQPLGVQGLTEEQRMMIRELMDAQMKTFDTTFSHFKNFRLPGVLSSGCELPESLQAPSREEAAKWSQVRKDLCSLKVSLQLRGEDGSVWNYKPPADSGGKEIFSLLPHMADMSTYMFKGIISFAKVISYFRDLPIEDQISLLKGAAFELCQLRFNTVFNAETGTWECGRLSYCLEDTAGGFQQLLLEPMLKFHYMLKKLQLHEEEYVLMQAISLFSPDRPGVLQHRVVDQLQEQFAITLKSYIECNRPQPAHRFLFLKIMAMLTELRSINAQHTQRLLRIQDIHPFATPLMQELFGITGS
In short: (§4)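 Seven test concentrations were run, beginning at the MTC and diluted three-fold serially. PXRE activity came from cis reporters, a 48-site MRTU library in HepG2 hepatoma cells. ERRg, FXR and PPARg activity came from trans one-hybrid reporters, an additional 25-member MRTU set.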

[6] = biological target: T3, PPARG (peroxisome proliferator-activated receptor gamma) (Homo sapiens, UniProt P37231); experiment: ATG_PPARg_TRANS: Factorial reporter gene assay (HepG2); assay type: cell-based; conditions: HepG2
T3 construct: expressed in transfected cells; host or cells: HepG2
T3 sequence (P37231 1-505): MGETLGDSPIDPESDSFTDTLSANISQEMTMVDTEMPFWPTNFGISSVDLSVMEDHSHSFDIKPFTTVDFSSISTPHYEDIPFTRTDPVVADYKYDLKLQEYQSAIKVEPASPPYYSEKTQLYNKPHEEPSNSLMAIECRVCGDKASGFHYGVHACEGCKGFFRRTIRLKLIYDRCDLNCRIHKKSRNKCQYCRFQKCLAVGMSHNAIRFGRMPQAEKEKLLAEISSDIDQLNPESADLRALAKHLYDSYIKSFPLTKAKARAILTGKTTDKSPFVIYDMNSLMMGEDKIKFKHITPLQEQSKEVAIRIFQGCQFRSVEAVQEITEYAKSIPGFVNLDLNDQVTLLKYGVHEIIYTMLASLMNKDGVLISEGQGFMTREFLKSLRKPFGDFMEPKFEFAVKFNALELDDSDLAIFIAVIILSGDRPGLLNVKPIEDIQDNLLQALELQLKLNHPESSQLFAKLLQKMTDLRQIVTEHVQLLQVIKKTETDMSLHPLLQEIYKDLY
In short: as §4

[7] = biological target: T4, ESR1 (estrogen receptor 1) (Homo sapiens, UniProt P03372); experiment: ATG_ERa_TRANS: Factorial reporter gene assay (HepG2); assay type: cell-based
T4 construct: expressed in transfected cells; host or cells: HepG2
T4 sequence (P03372 whole entry): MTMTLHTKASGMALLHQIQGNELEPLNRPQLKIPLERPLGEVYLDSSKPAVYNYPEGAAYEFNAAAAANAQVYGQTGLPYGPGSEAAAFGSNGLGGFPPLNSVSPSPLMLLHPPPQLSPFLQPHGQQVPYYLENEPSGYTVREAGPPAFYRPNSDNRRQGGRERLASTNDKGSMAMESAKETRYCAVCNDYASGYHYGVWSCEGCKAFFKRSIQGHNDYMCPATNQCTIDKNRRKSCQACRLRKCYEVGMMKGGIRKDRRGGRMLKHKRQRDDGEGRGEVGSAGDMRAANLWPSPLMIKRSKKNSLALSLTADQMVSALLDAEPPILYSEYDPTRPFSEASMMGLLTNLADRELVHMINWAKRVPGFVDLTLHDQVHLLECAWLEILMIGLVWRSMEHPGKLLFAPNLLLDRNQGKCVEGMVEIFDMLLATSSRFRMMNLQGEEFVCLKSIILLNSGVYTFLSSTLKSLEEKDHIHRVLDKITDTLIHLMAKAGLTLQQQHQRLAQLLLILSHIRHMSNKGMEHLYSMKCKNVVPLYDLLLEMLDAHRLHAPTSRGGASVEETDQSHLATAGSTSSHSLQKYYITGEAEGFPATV
Description: as §1, §2

Mouse Liver [8] = conditions: ref ToxRefDB, cited from earlier work
Mouse Liver [9] = conditions: chronic study, mouse liver; ref ToxRefDB; cited from earlier work
Mouse Liver [10] = conditions: chronic study, mouse liver; ref ToxRefDB; cited from earlier work; remark: listed apart in the source
CYP2B6 = experiment: CLZD_CYP2B6: Change in expression of CYP2B6 (primary human hepatocytes); assay type: cell-based; conditions: 24 hr
In short: as §3

CYP3A4 = experiment: CLZD_CYP3A4: Change in expression of CYP3A4 (primary human hepatocytes); assay type: cell-based; conditions: 24 hr
In short: as §3

PXR (NR1I2) [11] = biological target: T2, PXR (NR1I2); experiment: ATG_PXR_TRANS: Factorial reporter gene assay (HepG2); assay type: cell-based; design: endogenous in cells; host or cells: HepG2; conditions: HepG2
In short: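 Seven concentrations per chemical, three-fold dilutions down from the MTC, were tested in HepG2 hepatoma cells. Those cells carried a multiple reporter transcription unit library, read either as cis transcription-factor-site reporters or as a trans mammalian one-hybrid panel for nuclear receptors.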

PXR Human (NR1I2) = biological target: T5, PXR Human (NR1I2) (Homo sapiens, UniProt O75469); experiment: NCGC_PXR_Agonist_human: GAL4 BLAM Reporter gene assay: PXR Human; assay type: cell-based; conditions: agonist mode
T5 sequence (O75469 146-434 limits assumed): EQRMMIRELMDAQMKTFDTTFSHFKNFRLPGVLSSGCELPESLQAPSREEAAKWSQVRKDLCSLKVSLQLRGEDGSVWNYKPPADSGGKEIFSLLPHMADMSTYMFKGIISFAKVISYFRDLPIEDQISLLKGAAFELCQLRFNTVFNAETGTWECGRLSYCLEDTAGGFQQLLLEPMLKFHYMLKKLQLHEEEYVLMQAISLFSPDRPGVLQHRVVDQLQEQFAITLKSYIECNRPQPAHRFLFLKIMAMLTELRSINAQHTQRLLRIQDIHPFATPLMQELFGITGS
Description: These assays measure binding constants and enzyme inhibition values for nuclear receptors. The targets include [drawing 67] , [drawing 68] , [drawing 69] , [drawing 70] , [drawing 71] , [drawing 72] , [drawing 73] , [drawing 74] , [drawing 75] and [drawing 76] . Each of the nuclear receptor targets was measured in agonist mode. Assays were run at the NIH Chemical Genomics Center (Rockville, MD).
Cell-based HTS Assays: These assays measuring binding constants and enzyme inhibition values for nuclear receptors. The targets include AR, ER, FXR, LXR, PPARα, PPARδ, PPARγ, RXRα, RXRβ and PXR. Each of the nuclear receptor targets was measured in both agonist and antagonist mode, but the antagonist data is still undergoing analysis due to possible interference between cytotoxicity and assay activity, so antagonist mode data were not used in the present analysis. Assays were run at the NIH Chemical Genomics Center (Rockville, MD) as part of the Tox21 collaboration. […] The R^2 was required to be ≥0.5. Values where only the highest concentration exceeded 50% activity were excluded to eliminate weak or false positives. Detailed description of the methods, data and analysis methods for this dataset will be presented in a separate publication.

PXR (NR1I2) [12] = biological target: T2, PXR (NR1I2); experiment: NVS_NR_hPXR: Human PXR Fluormone PXR (SXR) green (cell-free HTS); assay type: binding
In short: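 Cell-free biochemical binding assays; chemicals first screened at a single concentration of 25 […] M in duplicate wells. Signals normalised to same-plate solvent controls as percent of neutral control, and AC50 values came from Hill-equation fits of concentration-response curves.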

## Nc1c(Cl)c(Cl)nc(C(=O)O)c1Cl [r245]
[1]; HepG2
  ATG_Ahr_CIS: 4.523
CYP1A2
  CLZD_CYP1A2_24: 4.952
Rat Liver [2]; rat, chronic study
  CHR_Rat_Liver_1_AnyLesion: 6
Rat Liver [3]; rat, chronic study
  CHR_Rat_Liver_2_PreneoplasticLesion: 0
Rat Liver [4]; rat, chronic study
  CHR_Rat_Liver_3_NeoplasticLesion: 0
PXR (NR1I2) [5]; HepG2
  ATG_PXRE_CIS: 4.26

## CCC(=O)C1C(=O)CC(C(=O)[O-])CC1=O.CCC(=O)C1C(=O)CC(C(=O)[O-])CC1=O.[Ca+2] (stereo not shown) [r254]
[1]; HepG2
  ATG_Ahr_CIS: 4.215
[6]
  ATG_PPARg_TRANS: 4.409
Rat Liver [2]; rat, chronic study
  CHR_Rat_Liver_1_AnyLesion: 0
Rat Liver [3]; rat, chronic study
  CHR_Rat_Liver_2_PreneoplasticLesion: 0
Rat Liver [4]; rat, chronic study
  CHR_Rat_Liver_3_NeoplasticLesion: 0

## O=c1n(Cl)c(=O)n(Cl)c(=O)n1Cl [r288]
[1]; HepG2 reporter
  ATG_Ahr_CIS: 4.509
CYP1A2
  CLZD_CYP1A2_24: 5.117
PXR (NR1I2) [5]; HepG2 reporter
  ATG_PXRE_CIS: 4.337

## Cc1c(F)c(F)c(COC(=O)C2C(/C=C(\Cl)C(F)(F)F)C2(C)C)c(F)c1F (stereo not shown) [r294]
[7]; HepG2 reporter
  ATG_ERa_TRANS: 4.31
Mouse Liver [8]; chronic study, mouse liver
  CHR_Mouse_Liver_1_AnyLesion: 6
Mouse Liver [9]
  CHR_Mouse_Liver_2_PreneoplasticLesion: 6
Mouse Liver [10]
  CHR_Mouse_Liver_3_NeoplasticLesion: 6
Rat Liver [2]; chronic study, rat liver
  CHR_Rat_Liver_1_AnyLesion: 0
Rat Liver [3]; chronic study, rat liver
  CHR_Rat_Liver_2_PreneoplasticLesion: 0
Rat Liver [4]; chronic study, rat liver
  CHR_Rat_Liver_3_NeoplasticLesion: 0
PXR (NR1I2) [5]; HepG2 reporter
  ATG_PXRE_CIS: 4.886

## COCC(=O)N(c1c(C)cccc1C)C(C)C(=O)OC (stereo not shown) [row 196]
[1]; HepG2
  ATG_Ahr_CIS: 4.149
CYP2B6
  CLZD_CYP2B6_24: 5.11
CYP3A4
  CLZD_CYP3A4_24: 4.985
Mouse Liver [8]; chronic mouse study, liver
  CHR_Mouse_Liver_1_AnyLesion: 6
Rat Liver [2]; chronic rat study, liver
  CHR_Rat_Liver_1_AnyLesion: 6
Rat Liver [3]; chronic rat study, liver
  CHR_Rat_Liver_2_PreneoplasticLesion: 0
Rat Liver [4]; chronic rat study, liver
  CHR_Rat_Liver_3_NeoplasticLesion: 0
PXR (NR1I2) [11]
  ATG_PXR_TRANS: 4.854
PXR (NR1I2) [5]; HepG2
  ATG_PXRE_CIS: 4.796

## CNC(=S)[S-].O.O.O.[Na+] [row 197]
[1]; HepG2
  ATG_Ahr_CIS: 4.444
[6]
  ATG_PPARg_TRANS: 4.569
PXR Human (NR1I2)
  NCGC_PXR_Agonist_human: 4.503
PXR (NR1I2) [5]; HepG2
  ATG_PXRE_CIS: 4.167

## CCCCOC(=O)c1ccccc1C(=O)O [row 215]
[1]; HepG2
  ATG_Ahr_CIS: 4.119
PXR (NR1I2) [12]
  NVS_NR_hPXR: 4.801

## CCCCC(C#N)(Cn1cncn1)c1ccc(Cl)cc1 (stereo not shown) [row 217]
[7]; HepG2
  ATG_ERa_TRANS: 4.398
CYP1A2
  CLZD_CYP1A2_24: 5.223
CYP2B6
  CLZD_CYP2B6_24: 4.948
CYP3A4
  CLZD_CYP3A4_24: 5.217
Mouse Liver [8]; chronic mouse study, liver
  CHR_Mouse_Liver_1_AnyLesion: 6
Rat Liver [2]; chronic rat study, liver
  CHR_Rat_Liver_1_AnyLesion: 6
Rat Liver [3]; chronic rat study, liver
  CHR_Rat_Liver_2_PreneoplasticLesion: 0
Rat Liver [4]; chronic rat study, liver
  CHR_Rat_Liver_3_NeoplasticLesion: 0
PXR (NR1I2) [5]; HepG2
  ATG_PXRE_CIS: 4.886
